Assay results taken from the supplement of paper PMC10307832.

Key:
Experiment in all cases: relative viability (nuclei count vs DMSO), 5 days (fraction); higher = more cells survive
RO-3306 + Foretinib = compound: C1=CC2=C(C=CC(=C2)C=C3C(=O)NC(=NCC4=CC=CS4)S3)N=C1 [RO-3306] + COc1cc2c(Oc3ccc(NC(=O)C4(C(=O)Nc5ccc(F)cc5)CC4)cc3F)ccnc2cc1OCCCN1CCOCC1 [Foretinib] (partner 0.25 µM)
How it was run: (§1)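 Relative viability divides the nuclei count in treated wells by that in vehicle wells. Lung cancer cell lines were seeded in 1536-well plates, dosed by pin tool the next day, and fixed and stained after 5 days in one step with final 0.05% Triton X-100, 1% formaldehyde and 1 ug/ml Hoechst. Dosing was a single drug or a fixed anchor-drug dose plus five library-drug doses (not always all listed) in √10 steps, and values are medians of duplicate plates imaged at 4×.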

[1] = compound: O=S(=O)(c1ccccc1)N(CC(F)(F)F)c1ccc(C(O)(C(F)(F)F)C(F)(F)F)cc1 + CC(C)C[C@H](NC(=O)[C@H](Cc1ccccc1)NC(=O)c1cnccn1)B(O)O [Bortezomib] (partner 0.002 µM)
How it was run: as §1

[2] = compound: O=S(=O)(c1ccccc1)N(CC(F)(F)F)c1ccc(C(O)(C(F)(F)F)C(F)(F)F)cc1 + CCNC(=O)c1noc(-c2cc(C(C)C)c(O)cc2O)c1-c1ccc(CN2CCOCC2)cc1 [Luminespib] (partner 0.01 µM)
How it was run: as §1

[3] = compound: O=S(=O)(c1ccccc1)N(CC(F)(F)F)c1ccc(C(O)(C(F)(F)F)C(F)(F)F)cc1 + COc1cc2c(Oc3ccc(NC(=O)C4(C(=O)Nc5ccc(F)cc5)CC4)cc3F)ccnc2cc1OCCCN1CCOCC1 [Foretinib] (partner 0.25 µM)
How it was run: as §1

[4] = compound: O=S(=O)(c1ccccc1)N(CC(F)(F)F)c1ccc(C(O)(C(F)(F)F)C(F)(F)F)cc1 + Nc1nc2[nH]cc(CCc3ccc(C(=O)N[C@@H](CCC(=O)O)C(=O)O)cc3)c2c(=O)[nH]1 [Pemetrexed] (partner 0.2 µM)
How it was run: as §1

[5] = compound: O=S(=O)(c1ccccc1)N(CC(F)(F)F)c1ccc(C(O)(C(F)(F)F)C(F)(F)F)cc1 + Nc1ncn([C@H]2C[C@H](O)[C@@H](CO)O2)c(=O)n1 [Decitabine] (partner 2 µM)
How it was run: as §1

UMC-11
relative viability (RO-3306 + Foretinib; first compound 0.01 µM): 0.999
relative viability (RO-3306 + Foretinib; first compound 0.03162 µM): 0.772
relative viability (RO-3306 + Foretinib; first compound 0.1 µM): 1.05
relative viability (RO-3306 + Foretinib; first compound 0.3162 µM): 1.21
relative viability (RO-3306 + Foretinib; first compound 1 µM): 1.16
relative viability ([1]; first compound 0.8 µM): 0.929
relative viability ([1]; first compound 2.53 µM): 0.743
relative viability ([1]; first compound 8 µM): 0.972
relative viability ([2]; first compound 0.8 µM): 1.19
relative viability ([2]; first compound 2.53 µM): 1.13
relative viability ([2]; first compound 8 µM): 1.13
relative viability ([3]; first compound 0.8 µM): 1.16
relative viability ([3]; first compound 2.53 µM): 1.12
relative viability ([3]; first compound 8 µM): 1.08
relative viability ([4]; first compound 0.8 µM): 0.786
relative viability ([4]; first compound 2.53 µM): 0.736
relative viability ([4]; first compound 8 µM): 0.852
relative viability ([5]; first compound 0.8 µM): 0.587
relative viability ([5]; first compound 2.53 µM): 0.471
relative viability ([5]; first compound 8 µM): 0.681
